Results as given in patent US20070166547A1, “Use of a layer consisting of hydrophobic linear, or two-dimensional polycyclic aromatics as a barrier layer or an encapsulation and electric components constructed with a layer of this type and comprising organic polymers” (priority 2003, published 2007).

What was measured:
plasma hemostasis = test: Partial activated thromboplastin time (PATT) after intravenous administration; type: in vivo, rabbit
Procedure: The investigations were performed on 72 rabbits of the “Chinchilla” breed with a mass of 2.5±0.3 kg, who were administered which solutions of compounds 2, 15, 21, 37 in doses of 15, 30 and 60 mg/kg intravenously. The experiments included the thrombin-test (series No. 7300) and the coagulability-test (series No. 5000) purchased from the scientific-and-production association (SPA) “Renam”, thromboplastin (series No. 240600) and calcium chloride purchased from the SPA “MedioLab”
The static parameters of the blood and plasma coagulation (partial activated thromboplastin time, thrombin time, maximum coagulation activity (test for auto coagulation) were determined using the Behnk Electronic coagulometer (Germany). The operating principle of this instrument is based on the fact that the formed blood clot breaks the contacts of the pulse counter in the flask-pin circuit, said pin permanently oscillating in a vertical plane. The moment of formation of the clot is registered by stopping the stop watch hand.
The measurements were effected at a constant temperature of 37° C. maintained by a temperature control unit.
Compounds 2, 15, 21, 37 according to the invention at a concentration of 15, 30 and 60 mg/kg were introduced to the above experimental animals intravenously, and their blood samples were taken off 15, 30, 60 and 120 minutes after the administration.
The blood plasma samples deprived of thrombocytes obtained as described above in an amount of 0.1 ml were put in a coagulometer flask and heated for 1 minute at 37° C., then 0.1 ml of 0.277% solution of calcium chloride was added and the blood clotting time was registered. The coagulation time T in seconds of the control plasma and plasma obtained after intravenous administration after 15, 30, 60 and 120 minutes were compared.

[1] = tested on: aggregation of thrombocytes; test: ADP-induced aggregation of thrombocytes after intravenous administration (in vivo); parameters: species or system rabbit
Procedure: The experiments were carried out on male rabbits of the “Chinchilla” breed having a mass of 2.7±0.3 kg. 18-24 hours prior to the experiment they were deprived of feed while preserving free access to water.
To obtain plasma enriched with thrombocytes, blood was taken from a cut of a marginal vein of the rabbit ear, the sample was stabilized with 3.8% of sodium citrate solution in a ratio of 9:1 and centrifuged at 200 g (1000 rev/min) for 10 minutes. The top supernatant layer enriched with thrombocytes was transferred by an automatic dropper into a silicone test tube and kept at 37° C. The plasma enriched with thrombocytes contained, on the average, […]. If this content exceeded the specified 3×10^8 blood platelets in 1 liter, this sample was diluted to the necessary concentration with plasma deprived of thrombocytes, which was obtained by centrifuging blood at 650 g during 10 minutes.
The measurements of the optical density of the samples were made on two-channel aggregometer of the “Chronolog” Company (USA). A flask containing 490 mkl of plasma rich with thrombocytes was placed in a device, into which a magnetic agitator covered with Teflon was lowered. The index of maximum amplitude of aggregation (MA) in percent of a fall of the plasma optical density under effect of the aggregation inductor was recorded. The control index MA of plasma was compared with the MA of plasma incubated for 3 minutes with different concentrations of the compounds: from 10^−3 to 10^−7 in vitro experiments or with plasma obtained 15, 30, 60 and 120 minutes after intravenous administration of different doses of the compounds in vivo experiments.
The process of aggregation of thrombocytes was recorded with the help of a computer; on the monitor screen the there were depicted curves reflecting changes of the optical density of the plasma enriched which was taken as a standard 100% compared to the optical density of the non-thrombocyte plasma taken for 0% content of thrombocytes.
The antiaggregative capability of compounds 2, 15, 21, 37, according to the invention was tested in experiments in vivo. Introduced to the test animals intravenously were an aggregation inductor ADP at a concentration of 10^−5 M was and then the compounds according to the invention. The doses of the compounds were in a range from 15 to 60 mg/kg.
For leveling the different effects of the compounds in different days due the ambient temperature, humidity and other parameters, 2 animals of each series were taken for experiments every day. Under “series” there is understood a group of 6 animals used for studying one of the doses of the compounds.
The blood for obtaining plasma enriched with thrombocytes was taken from marginal vein of the rabbit ear: in the control group—directly before introducing the tested compounds; in investigated groups—15 minutes after introducing these compounds and then after 30, 60, 120 minutes and so on up to the moment when the effect of suppression of aggregation disappeared.
The quantity of thrombocytes was counted before the experiment and at the end thereof in each plasma sample.

[2] = tested on: indicator enzymes in blood plasma; test: Morphine abstinence model: indicator enzymes AST, ALT, γ-GTP in blood plasma; type: in vivo, rats Wistar
Procedure: The experiments were carried out on rats in series of 7 animals on each compound according to the invention. Non-morphinized animal with not administered with compounds according to the invention were used as a control group. […] Then the rats were decapitated, the blood from somnolent arteries was collected in test tubes with solution EDTA as an anticoagulant, centrifuged at 1500 g for 15 minutes at 4° C.
To estimate possible hepatoprotective action of the compounds according to the invention under conditions of development of an oxidizing stress in the liver cells, effect of these compounds on the most important biochemical blood indexes, in particular, on the content in blood plasma of indicator enzyme of aspartateaminotransferase (AST), alanineaminotransferase (ALT), γ-glutamiletranspeptidase (γ-GTP) was investigated. The content of enzymes was estimated by their catalyzing activity in blood plasma.
The activity of AST, ALT and γ-GTP was determined by means of diagnostic sets DiaSys, Germany.

[3] = compound alone 20.0 mg/kg intramuscularly
[4] = morphinized rats then compound 20.0 mg/kg intramuscularly

Nc1cccc2c(=O)[nH][nH]c(=O)c12.[Na] [Compound 15, sodium salt of 5-amino-benzo[d]-3H-pyridazine-1,4-dione]
T, s after 15 minutes (PATT) (plasma hemostasis; dose 15.0 mg/kg intravenously): 37.0 ± 0.1 s
T, s after 30 minutes (PATT) (plasma hemostasis; dose 15.0 mg/kg intravenously): 37.0 ± 0.2 s
T, s after 60 minutes (PATT) (plasma hemostasis; dose 15.0 mg/kg intravenously): 36.9 ± 0.1 s
T, s after 120 minutes (PATT) (plasma hemostasis; dose 15.0 mg/kg intravenously): 37.0 ± 0.3 s
T, s after 15 minutes (PATT) (plasma hemostasis; dose 30.0 mg/kg intravenously): 32.9 ± 0.8 s
T, s after 30 minutes (PATT) (plasma hemostasis; dose 30.0 mg/kg intravenously): 32.1 ± 0.1 s
T, s after 60 minutes (PATT) (plasma hemostasis; dose 30.0 mg/kg intravenously): 32.0 ± 0.2 s
T, s after 120 minutes (PATT) (plasma hemostasis; dose 30.0 mg/kg intravenously): 32.0 ± 0.1 s
T, s after 15 minutes (PATT) (plasma hemostasis; dose 60.0 mg/kg intravenously): 32.2 ± 0.1 s
T, s after 30 minutes (PATT) (plasma hemostasis; dose 60.0 mg/kg intravenously): 32.2 ± 0.1 s
T, s after 60 minutes (PATT) (plasma hemostasis; dose 60.0 mg/kg intravenously): 32.1 ± 0.2 s
T, s after 120 minutes (PATT) (plasma hemostasis; dose 60.0 mg/kg intravenously): 32.2 ± 0.1 s
effect on the PATT (overall) (plasma hemostasis; doses 15.0, 30.0, 60.0 mg/kg): do not affect the PATT
MA, %, After 15 minutes ([1]; dose 15.0 mg/kg intravenously): 42.8 ± 1.8 %
MA, %, After 30 minutes ([1]; dose 15.0 mg/kg intravenously): 41.8 ± 1.5 %
MA, %, After 60 minutes ([1]; dose 15.0 mg/kg intravenously): 45.6 ± 1.5 %
MA, %, After 120 minutes ([1]; dose 15.0 mg/kg intravenously): 48.3 ± 2.3 %
MA, %, After 15 minutes ([1]; dose 30.0 mg/kg intravenously): 43.2 ± 2.2 %
MA, %, After 30 minutes ([1]; dose 30.0 mg/kg intravenously): 41.8 ± 1.9 %
MA, %, After 60 minutes ([1]; dose 30.0 mg/kg intravenously): 37.8 ± 1.8 %
MA, %, After 120 minutes ([1]; dose 30.0 mg/kg intravenously): 58.1 ± 1.7%
MA, %, After 15 minutes ([1]; dose 60.0 mg/kg intravenously): 43.1 ± 1.5 %
MA, %, After 30 minutes ([1]; dose 60.0 mg/kg intravenously): 41.3 ± 1.5 %
MA, %, After 60 minutes ([1]; dose 60.0 mg/kg intravenously): 44.7 ± 0.8%
MA, %, After 120 minutes ([1]; dose 60.0 mg/kg intravenously): 47.2 ± 1.6%
ALT, Ci, mE/l, Control + compound [2, 3]: 113.48 ± 2.39 mE/l
AST, Ci, mE/l, Control + compound [2, 3]: 173.46 ± 5.63 mE/l
γ-GTP, Ci, mE/l, Control + compound [2, 3]: 7.03 ± 2.82 mE/l
ALT, Ci, mE/l, control + Morphine + Compound [2, 4]: 121.08 ± 5.04 mE/l
AST, Ci, mE/l, control + Morphine + Compound [2, 4]: 195.57 ± 18.68 mE/l
γ-GTP, Ci, mE/l, control + Morphine + Compound [2, 4]: 10.69 ± 1.84 mE/l
